{"source": "patent US9132141B2", "about": "(priority 2012, dated 2015)", "key": {"TLR4": {"biological_target": "T1, TLR4 (Mus musculus, UniProt Q9JHF9+Q9QUK6)", "T1 construct": "endogenous in cells; host or cells: peritoneal macrophages from wild-type C57BL/6J mice", "T1 sequence (Q9QUK6 26-835)": "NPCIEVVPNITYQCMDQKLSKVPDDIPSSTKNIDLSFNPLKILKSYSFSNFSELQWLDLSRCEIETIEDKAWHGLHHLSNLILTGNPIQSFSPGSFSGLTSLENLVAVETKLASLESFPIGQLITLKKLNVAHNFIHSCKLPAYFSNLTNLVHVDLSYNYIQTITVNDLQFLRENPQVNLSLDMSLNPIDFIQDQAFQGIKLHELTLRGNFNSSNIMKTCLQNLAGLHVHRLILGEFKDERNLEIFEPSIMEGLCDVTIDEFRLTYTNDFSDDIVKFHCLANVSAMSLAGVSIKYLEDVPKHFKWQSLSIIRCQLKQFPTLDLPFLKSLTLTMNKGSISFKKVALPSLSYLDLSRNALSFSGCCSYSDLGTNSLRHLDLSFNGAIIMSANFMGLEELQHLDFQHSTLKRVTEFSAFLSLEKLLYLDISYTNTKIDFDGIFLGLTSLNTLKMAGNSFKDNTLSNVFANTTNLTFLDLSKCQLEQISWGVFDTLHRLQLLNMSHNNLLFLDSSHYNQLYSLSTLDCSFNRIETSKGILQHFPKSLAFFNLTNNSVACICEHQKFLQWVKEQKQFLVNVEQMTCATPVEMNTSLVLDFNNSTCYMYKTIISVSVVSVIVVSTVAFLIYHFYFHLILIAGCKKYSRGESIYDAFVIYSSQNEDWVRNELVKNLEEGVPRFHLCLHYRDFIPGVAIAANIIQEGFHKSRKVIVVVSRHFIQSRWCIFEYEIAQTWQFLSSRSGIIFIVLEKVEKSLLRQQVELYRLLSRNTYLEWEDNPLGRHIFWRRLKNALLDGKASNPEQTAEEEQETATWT", "T1 sequence (Q9JHF9 19-160)": "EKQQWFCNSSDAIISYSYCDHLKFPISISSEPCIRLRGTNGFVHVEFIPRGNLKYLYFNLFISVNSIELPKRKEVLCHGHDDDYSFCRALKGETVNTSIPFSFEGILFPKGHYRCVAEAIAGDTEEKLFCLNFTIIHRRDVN", "experiment": "OxPAPC-induced IL-6 gene expression in peritoneal macrophages", "type": "cell-based", "settings": "pretreatment 10 ng/mL for 1 hour, OxPAPC 20 μg/mL", "procedure": "Wild-type C57BL/6J, TLR4^−/−, and TLR2^−/− peritoneal macrophages were pretreated with eritoran (10 ng/mL) for 1 hour and then treated with medium alone, LPS (20 ng/mL), P3C (300 ng/mL), or OxPAPC (20 μg/mL) and RNA expression was measured. Commercially obtained OxPAPC activated IL-6 gene expression in WT and TLR2^−/− mouse peritoneal macrophages, but not in cells from TLR4^−/− mice (FIG. 9). […] Data are means+/−s.e.m. from 1 experiment with samples done in triplicate (*p<0.001, #p<0.05)."}, "PR8 [1]": {"test_system": "PR8", "experiment": "Influenza-induced cytokine and interferon mRNA in lungs of PR8-infected mice (real-time PCR)", "type": "in vivo", "settings": "200 μg/mouse i.v. starting on day 2"}, "PR8 [2]": {"test_system": "PR8", "experiment": "Survival of PR8-infected IFNβ−/− mice", "type": "in vivo", "settings": "~7500 TCID50 PR8; treated 2 days post-infection for 5 successive days", "text": "Wild-type and IFNβ^−/− mice were infected with ˜7500 TCID50 PR8 and were left either untreated (circles) or treated with eritoran 2 days post-infection, for 5 successive days (squares). (FIG. 11). Data represent the combined results of 2 separate experiments (6 mice per treatment per experiment; WT: untreated vs. eritoran treatment (p<0.0013); IFNβ^−/−: untreated v. eritoran treatment (p=ns)."}, "PR8 [3]": {"test_system": "PR8", "experiment": "Lung viral titers in PR8-infected mice", "type": "in vivo", "settings": "~7500 TCID50 PR8, 200 μg/mouse i.v. starting on day 2"}, "influenza": {"test_system": "influenza", "experiment": "Survival of influenza-infected TLR2−/− and CD14−/− mice", "type": "in vivo", "settings": "treated 2 days post-infection for 5 successive days", "text": "Normal mice (WT), TLR4^−/−, TLR2^−/−, and CD14^−/− were infected with influenza and then were untreated (closed circles) or treated with eritoran (open circles) 2 days post-infection, for 5 successive days. (FIG. 13a). […] WT data were combined from 5 separate experiments (5-6 mice per treatment per experiment), TLR4^−/− data were combined from 3 separate experiments (5-6 mice per treatment per experiment), CD14^−/− data were combined from 2 separate experiments (4-5 mice per treatment per experiment). WT: untreated vs eritoran (p, 0.0001); TLR4^−/−: untreated vs. eritoran (p=ns); CD14^−/−: untreated vs. eritoran (p=ns); TLR2^−/−: untreated vs. eritoran (p=ns)."}, "PR8 [4]": {"test_system": "PR8", "experiment": "Influenza-induced serum liver enzyme levels (ALT, AST) in PR8-infected mice", "type": "in vivo, C57BL/6J WT mice", "settings": "200 μg/mouse i.v. starting on day 2; serum day 7", "procedure": "Mice infected i.n. with 50 μl of PR8 (˜7500 TCID50/mouse). Mice injected i.v. with 100 μl of eritoran (200 μg/mouse) starting on day 2 post-infection. Serum was collected on day 7 from C57BL/6J WT mice that were either mock-infected with saline or infected with PR8 and were either left untreated or were treated with eritoran starting on day 2 post-infection. Alanine aminotransaminase (ALT) and aspartate aminotransaminase (AST) were measured (Siemens Healthcare Diagnostics, Ltd.). […] Data represent 2 separate experiments with 4 mice per treatment per experiment."}, "PR8 [5]": {"test_system": "PR8", "experiment": "Oxidized phospholipids in lungs of PR8-infected mice (MALDI-IMS)", "type": "in vivo, mouse", "settings": "PR8-infected mice with or without treatment", "text": "To assess the effect of eritoran on production of oxidized phospholipids during infection, MALDI-IMS was used to identify alterations in the lipid composition of mouse lungs after PR8, with or without eritoran treatment. […] (FIG. 10a). Results are representative of 4 replicate experiments. The structures of abundant phosphatidylcholine (PC) and predicted oxidized phosphatidylcholine (OxPC) molecules and molecular weights: 1-palmitoyl-2-linoleoyl PC (PLPC) m/z 757.6, 1-palmitoyl-2-arachadonyl PC (PAPC) m/z 782.1, and predicted structures of oxidized PC molecules and molecular weight, 1-palmitoyl-2-(9-oxo)nonanoyl PC (PONPC) m/z 649.4, (PEIPC) 1-palmitoyl-2-(5,6-epoxyisoprostance E2 oyl) PC m/z 828.1 are shown. (FIG. 10b)."}, "PR8 [6]": {"test_system": "PR8", "experiment": "Influenza-induced lung pathology in PR8-infected mice (H&E histology)", "type": "in vivo", "settings": "~7500 TCID50 PR8; 200 μg/mouse i.v. starting on day 2; day 7 post-infection", "procedure": "Mice were infected i.n. with 50 μl of PR8 (˜7500 TCID50/mouse). Mice were then injected i.v. with 100 μl of eritoran (200 μg/mouse) starting on day 2 post-infection. Mice were then sacrificed on day 7 post-infection (day […] post-eritoran treatment) and lungs harvested for lung pathology (4 mice/treatment group). Murine lungs were inflated and perfused and fixed with 4% PFA. Fixed sections (8 μm) of paraffin-embedded lungs were stained with hematoxylin and eosin (H&E). Slides were randomized, read blindly, and examined for tissue damage, necrosis, apoptosis, and proinflammatory cellular infiltration. […] Pulse oximetry measurements were performed to confirm these observations."}, "[7]": {"test_system": "A/California/07/2009, H1N1", "experiment": "Direct antiviral effect: virus titration in MDCK cells"}}, "data": [{"smiles": "CCCCCC/C=C\\CCCCCCCCCC(=O)N[C@H]1[C@H](OC[C@H]2O[C@H](OP(=O)(O)O)[C@H](NC(=O)CC(=O)CCCCCCCCCCC)[C@@H](OCCCCCCCCCC)[C@@H]2O)O[C@H](COC)[C@@H](OP(=O)(O)O)[C@@H]1OCC[C@@H](CCCCCCC)OC", "note": "[eritoran, α-D-Glucopyranose, 3-O-decyl-2-deoxy-6-O-[2-deoxy-3-O-[(3R)-3-methoxydecyl)-6-O-methyl-2-[[(-11Z)-1-oxo-11-octadecenyl)amino]-4-O-phosphono-β-D-glucopyranosyl]-2-[(1,3-dioxotetradecyl)amino]-1-(dihydrogen phosphate)]", "values": [{"measurement": "TLR4-dependent cell activation by OxPAPC (IL-6 gene expression)", "setting": "TLR4", "result": "substantially inhibited"}, {"measurement": "cytokine gene expression in lung", "setting": "PR8 [1]; days 2, 4, 6 post-infection", "result": "significantly reduced cytokine gene expression at each time point"}, {"measurement": "interferon production (mRNA) in lung", "setting": "PR8 [1]; depends on interferon species", "result": "variable levels of interferon production compared to control mice"}, {"measurement": "protection (survival) in IFNβ−/− mice", "setting": "PR8 [2]", "result": "does not induce protection"}, {"measurement": "lung viral titers on day 7", "setting": "PR8 [3]; day 7 post-infection", "result": "further decreased"}, {"measurement": "lung viral titers", "setting": "PR8 [3]; lungs harvested days 2, 4, 6", "result": "statistically significant decrease in lung viral titers"}, {"measurement": "protection (survival) in TLR2−/− or CD14−/− mice", "setting": "influenza", "result": "ineffective at inducing protection"}, {"measurement": "liver enzyme levels (ALT, AST) in serum", "setting": "PR8 [4]", "result": "lower levels of liver enzymes post-infection"}, {"measurement": "oxidation products of phospholipids in lung", "setting": "PR8 [5]", "result": "detected in greater abundance and intensity in PR8-infected versus mice that were treated with eritoran"}, {"measurement": "lung sections nearly normal", "setting": "PR8 [6]", "result": "~80 % of lung sections"}, {"measurement": "lung sections showing inflammatory infiltrates", "setting": "PR8 [6]", "result": "~20 % of lung sections"}, {"measurement": "Titer", "setting": "[7]; Experiment 1, 10 ng/mL applied 1 hour prior to virus", "result": "1.0 × 10^6 TCID50/ml"}, {"measurement": "Titer", "setting": "[7]; Experiment 1, 10 ng/mL applied at the same time as virus", "result": "3.1 × 10^6 TCID50/ml"}, {"measurement": "Titer", "setting": "[7]; Experiment 2, 10 ng/mL applied 1 hour prior to virus", "result": "3.4 × 10^5 TCID50/ml"}, {"measurement": "Titer", "setting": "[7]; Experiment 2, 10 ng/mL applied at the same time as virus", "result": "6.3 × 10^6 TCID50/ml"}]}]}
